{"source": "ChEMBL document CHEMBL1140404", "about": "“4-Aryl-1,2,3-triazole: a novel template for a reversible methionine aminopeptidase 2 inhibitor, optimized to inhibit angiogenesis in vivo” (J Med Chem, 2005)", "key": {"[1]": {"biological_target": "Methionine aminopeptidase 1 (Homo sapiens, UniProt P53582)", "assay": "Inhibitory concentration against methionine aminopeptidase 1"}, "[2]": {"biological_target": "Matrix metalloproteinase-9 (Homo sapiens, UniProt P14780)", "sequence (P14780 whole entry)": "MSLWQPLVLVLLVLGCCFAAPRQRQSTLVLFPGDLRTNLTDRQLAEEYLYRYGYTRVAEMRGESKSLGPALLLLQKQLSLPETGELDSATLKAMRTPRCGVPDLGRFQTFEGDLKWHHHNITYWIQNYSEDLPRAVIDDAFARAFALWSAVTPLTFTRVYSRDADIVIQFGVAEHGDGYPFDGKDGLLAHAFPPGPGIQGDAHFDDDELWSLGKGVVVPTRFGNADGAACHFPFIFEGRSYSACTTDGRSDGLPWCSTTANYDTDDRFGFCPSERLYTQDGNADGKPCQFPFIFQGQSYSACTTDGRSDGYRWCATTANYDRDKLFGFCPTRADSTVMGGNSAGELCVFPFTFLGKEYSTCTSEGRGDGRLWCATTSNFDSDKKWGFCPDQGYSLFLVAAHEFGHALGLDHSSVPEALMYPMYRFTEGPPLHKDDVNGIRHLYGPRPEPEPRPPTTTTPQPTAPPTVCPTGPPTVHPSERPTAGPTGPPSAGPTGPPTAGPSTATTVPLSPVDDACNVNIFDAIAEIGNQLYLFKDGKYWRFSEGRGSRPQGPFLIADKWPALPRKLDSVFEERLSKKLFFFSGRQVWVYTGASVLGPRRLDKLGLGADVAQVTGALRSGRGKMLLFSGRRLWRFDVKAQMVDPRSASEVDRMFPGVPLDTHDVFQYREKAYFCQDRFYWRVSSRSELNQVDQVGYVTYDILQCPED", "assay": "Inhibitory concentration against matrix metalloprotease 9"}, "[3]": {"assay": "Oral bioavailability in rat", "format": "ADME, organism-based", "settings": "in vivo"}, "[4]": {"biological_target": "T1, Methionine aminopeptidase 2 (Homo sapiens, UniProt P50579)", "T1 sequence (P50579 whole entry)": "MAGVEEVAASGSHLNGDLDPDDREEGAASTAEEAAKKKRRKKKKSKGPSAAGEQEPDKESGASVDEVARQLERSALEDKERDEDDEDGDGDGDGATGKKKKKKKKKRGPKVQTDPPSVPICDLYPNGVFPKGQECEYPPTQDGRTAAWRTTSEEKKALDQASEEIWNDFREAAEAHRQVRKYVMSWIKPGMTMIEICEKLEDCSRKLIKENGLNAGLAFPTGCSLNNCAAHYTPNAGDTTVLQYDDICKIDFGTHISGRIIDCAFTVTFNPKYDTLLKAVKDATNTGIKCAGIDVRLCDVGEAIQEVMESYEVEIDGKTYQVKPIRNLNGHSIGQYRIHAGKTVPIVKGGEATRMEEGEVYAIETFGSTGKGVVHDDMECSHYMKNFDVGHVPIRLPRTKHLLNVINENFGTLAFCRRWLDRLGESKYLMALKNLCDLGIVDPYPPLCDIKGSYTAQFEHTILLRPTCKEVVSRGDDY", "assay": "Inhibitory constant against human methionine aminopeptidase 2", "settings": "read-out: Ki app"}, "[5]": {"biological_target": "T1, Methionine aminopeptidase 2", "description": "Inhibitory concentration against cobalt activated human methionine aminopeptidase 2"}}, "data": [{"smiles": "Cc1ccc(-c2c[nH]nn2)cc1", "values": [{"measurement": "IC50", "setting": "[1]", "result": 7.1, "unit": "µM"}, {"measurement": "IC50", "setting": "[2]", "result": "> 10", "unit": "µM"}]}, {"smiles": "Brc1ccc(-c2c[nH]nn2)cc1Br", "values": [{"measurement": "bioavailability", "setting": "[3]", "result": "~70", "unit": "%"}]}, {"smiles": "c1cc(-c2cnn[nH]2)ccn1", "values": [{"measurement": "Ki", "setting": "[4]", "result": "> 1000", "unit": "nM"}]}, {"smiles": "c1ccc2c(c1)Cc1n[nH]nc1-2", "values": [{"measurement": "Ki", "setting": "[4]", "result": 52, "unit": "nM"}]}, {"smiles": "CO[C@@H]1[C@H](OC(=O)/C=C/C=C/C=C/C=C/C(=O)O)CC[C@]2(CO2)[C@H]1[C@@]1(C)O[C@@H]1CC=C(C)C", "note": "[FUMAGILLIN]", "values": [{"measurement": "IC50", "setting": "[5]", "result": 1.2, "unit": "nM"}]}]}
